pIC50: −log10 of the molar value.
Target: T1, KAT6A (Homo sapiens, UniProt Q92794)
T1 construct: purchased active motife (Active Motif) 81223
Assay: Enzymatic activity assay for KAT6A acetyltransferase (TR-FRET, acetylation of histone substrate H3)
Format: biochemical
Method: The acetylation effect of KAT6A on histone substrate H3 was determined using the TR-FRET (time-resolved fluorescence resonance energy transfer) method.
• 1) The compounds prepared in the examples of the present disclosure were each dissolved in dimethylsulfoxide to give solutions at a concentration of 10 mmol/L, and then the solutions were diluted to 0.2 mmol/L, i.e., 1 µL of the compound was added to 49 µL of DMSO, and 3-fold dilution was performed to give 10 concentrations. • 2) 50 nL of the test compounds (example compounds) were transferred to 384 reaction plates using Echo, two replicates for each compound, and the plates were centrifuged at a rotation speed of 1000 rpm for 1 min, the final concentration of dimethylsulfoxide (DMSO) being 0.5%. • 3) 2.5 µL of the reaction mixtures obtained in step 2 was added to the 384 reaction plates in step 2), and the plates were centrifuged at 1000 rpm for 1 min and incubated at 25 °C for 10 min. • 4) 2.5 µL of Bio-H3&AcCOA (acetyl-CoA) reaction solution was added to the 384 reaction plates in step 3), and the plates were centrifuged at a rotation speed of 1000 rpm for 1 min and incubated at 25 °C for 90 min. • 5) 5 µL of Eu-Ab& Ulight-SA detection solution was added to the 384 reaction plates in step 4), and the plates were centrifuged at 1000 rpm for 1 min and incubated at 25 °C for 60 min. • 6) The HTRF […] signals were read using a BMG high-throughput drug-screening multi-mode microplate reader.
The acetylation level of the histone H3 was analyzed by the GraphPad Prism 8 software. The reading of the negative control (0.5% DMSO wells) was set as 0% inhibition rate, and the reading of the positive control (wells with the highest concentration of the control compound) was set as 100% inhibition rate. The inhibition rates were calculated, and then IC50 values (half maximal inhibitory concentration) of test compounds were obtained by using a software nonlinear fitting formula; [formula]
Datapositive control: mean of positive control well values; Datanegative control: mean of negative control well values. Table 3. Enzymatic inhibitory activity of example compounds

T1 sequence (Q92794 whole entry): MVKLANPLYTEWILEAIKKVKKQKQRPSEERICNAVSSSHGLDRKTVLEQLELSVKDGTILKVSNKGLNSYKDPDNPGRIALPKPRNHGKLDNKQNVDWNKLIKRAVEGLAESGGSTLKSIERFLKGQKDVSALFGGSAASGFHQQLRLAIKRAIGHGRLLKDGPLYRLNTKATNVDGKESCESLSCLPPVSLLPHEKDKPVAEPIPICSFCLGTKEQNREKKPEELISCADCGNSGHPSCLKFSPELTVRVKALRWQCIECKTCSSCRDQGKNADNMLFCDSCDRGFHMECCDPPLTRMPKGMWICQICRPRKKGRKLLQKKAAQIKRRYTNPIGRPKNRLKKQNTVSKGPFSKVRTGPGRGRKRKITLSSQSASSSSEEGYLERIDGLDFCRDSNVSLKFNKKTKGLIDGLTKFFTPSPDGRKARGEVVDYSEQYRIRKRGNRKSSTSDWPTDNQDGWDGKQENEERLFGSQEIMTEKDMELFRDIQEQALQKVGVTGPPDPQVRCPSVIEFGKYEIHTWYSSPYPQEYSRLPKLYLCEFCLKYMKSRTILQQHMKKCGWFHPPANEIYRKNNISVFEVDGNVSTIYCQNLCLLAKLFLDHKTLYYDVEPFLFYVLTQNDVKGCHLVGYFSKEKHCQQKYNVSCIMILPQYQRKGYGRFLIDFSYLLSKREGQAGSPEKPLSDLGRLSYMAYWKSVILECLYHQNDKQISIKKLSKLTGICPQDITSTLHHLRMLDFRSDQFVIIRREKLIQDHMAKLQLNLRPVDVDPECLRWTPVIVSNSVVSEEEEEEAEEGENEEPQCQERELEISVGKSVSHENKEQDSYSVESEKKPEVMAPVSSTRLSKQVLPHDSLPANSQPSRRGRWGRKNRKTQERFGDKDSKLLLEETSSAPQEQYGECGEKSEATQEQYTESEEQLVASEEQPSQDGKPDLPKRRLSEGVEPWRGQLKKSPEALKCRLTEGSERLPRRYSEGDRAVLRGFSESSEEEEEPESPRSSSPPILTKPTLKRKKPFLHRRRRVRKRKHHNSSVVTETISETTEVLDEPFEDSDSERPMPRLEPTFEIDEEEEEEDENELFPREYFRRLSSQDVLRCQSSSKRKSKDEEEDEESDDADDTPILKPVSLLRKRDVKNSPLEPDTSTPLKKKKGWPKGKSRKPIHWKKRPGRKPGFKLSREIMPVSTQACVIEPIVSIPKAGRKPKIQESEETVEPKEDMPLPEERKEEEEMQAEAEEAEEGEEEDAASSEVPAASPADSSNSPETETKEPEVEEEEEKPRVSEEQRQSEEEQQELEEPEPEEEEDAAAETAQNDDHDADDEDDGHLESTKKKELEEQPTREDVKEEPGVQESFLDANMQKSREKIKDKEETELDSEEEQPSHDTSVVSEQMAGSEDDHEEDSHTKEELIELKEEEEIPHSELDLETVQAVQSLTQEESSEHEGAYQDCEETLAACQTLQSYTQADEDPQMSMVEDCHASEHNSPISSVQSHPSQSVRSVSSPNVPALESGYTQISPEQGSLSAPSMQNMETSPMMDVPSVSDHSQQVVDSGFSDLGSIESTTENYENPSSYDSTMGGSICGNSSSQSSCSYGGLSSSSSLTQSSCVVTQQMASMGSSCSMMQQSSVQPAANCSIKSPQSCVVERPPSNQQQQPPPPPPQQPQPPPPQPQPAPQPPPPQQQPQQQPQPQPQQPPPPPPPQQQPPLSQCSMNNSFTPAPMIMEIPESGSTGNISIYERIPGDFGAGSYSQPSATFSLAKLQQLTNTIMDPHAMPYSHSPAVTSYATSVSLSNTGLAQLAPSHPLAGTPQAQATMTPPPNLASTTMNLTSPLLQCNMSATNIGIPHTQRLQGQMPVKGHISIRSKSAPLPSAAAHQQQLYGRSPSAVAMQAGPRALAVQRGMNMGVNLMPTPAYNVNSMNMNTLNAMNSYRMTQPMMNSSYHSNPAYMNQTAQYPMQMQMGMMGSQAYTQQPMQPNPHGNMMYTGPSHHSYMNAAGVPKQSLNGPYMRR

Structure (SMILES)	pIC50
COc1nc(Cn2nccn2)cc2onc(NS(=O)(=O)c3cccc4c3OCC4)c12 [Example 12, N-(6-((2H-1,2,3-Triazol-2-yl)methyl)-4-methoxyisoxazolo[4,5-c]pyridin-3-yl)-2,3-dihydrobenzofuran-7-sulfonamide]	7.18
COc1cc2c(c(OC)c1S(=O)(=O)Nc1noc3cc(Cn4cccn4)nc(OC)c13)CCO2 [Example 97, N-(6-((1H-pyrazol-1-yl)methyl)-4-methoxyisoxazolo[4,5-c]pyridin-3-yl)-4,6-dimethoxy-2,3-dihydrobenzofuran-5-sulfonamide]	9.02
[2H]C1Oc2cc(S(=O)(=O)Nc3noc4cc(Cn5cccn5)nc(OC)c34)c(OC)cc2C1[2H] (stereo not drawn) [Example 103, N-(6-((1H-pyrazol-1-yl)methyl)-4-methoxyisoxazolo[4,5-c]pyridin-3-yl)-5-methoxy-2,3-dihydrobenzofuran-6-sulfonamide-2,3-d2]	8.73
COc1ccc2ccoc2c1S(=O)(=O)Nc1noc2cc(Cn3cc(F)cn3)nc(OC)c12 [Example 68, N-(6-((4-Fluoro-1H-pyrazol-1-yl)methyl)-4-methoxyisoxazolo[4,5-c]pyridin-3-yl)-6-methoxvbenzofuran-7-sulfonamide]	8.62
COc1nc(C(F)(F)n2cccn2)cc2onc(NS(=O)(=O)c3cccc4c3OCC4)c12 [Example 17, N-(6-(Difluoro(1H-pyrazol-1-yl)methyl)-4-methoxyisoxazolo[4,5-c]pyridin-3-yl)-2,3-dihydrobenzofuran-7-sulfonamide]	8.06
COc1cc(OC)c(S(=O)(=O)Nc2noc3cc(Cn4cccn4)nc(OC)c23)c2c1CCO2 [Example 98, N-(6-((1H-pyrazol-1-yl)methyl)-4-methoxyisoxazolo[4,5-c]pyridin-3-yl)-4,6-dimethoxy-2,3-dihydrobenzofuran-7-sulfonamide]	9.08
COc1cc2c(cc1S(=O)(=O)Nc1noc3cc(Cn4cccn4)nc(OC)c13)OC(C)(C)C2 [Example 105, N-(6-((1H-pyrazol-1-yl)methyl)-4-methoxyisoxazolo[4,5-c]pyridin-3-yl)-5-methoxy-2,2-dimethyl-2,3-dihydrobenzofuran-6-sulfonamide]	8.66
COc1cc2c(cc1S(=O)(=O)Nc1noc3cc(Cn4nccn4)nc(OC)c13)CCCC2 [Example 34, N-(6-((2H-1,2,3-Triazol-2-yl)methyl)-4-methoxyisoxazolo[4,5-c]pyridin-3-yl)-3-methoxy-5,6,7,8-tetrahydronaphthalene-2-sulfonamide]	7.90
COc1c(Cl)c2c(c(OC)c1S(=O)(=O)Nc1noc3cc(Cn4cccn4)nc(OC)c13)CCC2 [Example 63, N-(6-((1H-Pyrazol-1-yl)methyl)-4-methoxyisoxazolo[4,5-c]pyridin-3-yl)-7-chloro-4,6-dimethoxy-2,3-dihydro-1H-indene-5-sulfonamide]	8.22
[2H]C([2H])(c1cc2onc(NS(=O)(=O)c3cc4c(cc3OC)CCO4)c2c(OC)n1)n1cccn1 [Example 104, N-(6-((1H-pyrazol-1-yl)methyl-d2)-4-methoxyisoxazolo[4,5-c]pyridin-3-yl)-5-methoxy-2,3-dihydrobenzofuran-6-sulfonamide]	8.75

Other lines, results leading:

pIC50	Structure (SMILES)
8.06	COc1nc(Cn2cccn2)cc2onc(NS(=O)(=O)c3ccc4ncsc4c3)c12 [Example 55, N-(6-((1H-Pyrazol-1-yl)methyl)-4-methoxyisoxazolo[4,5-c]pyridin-3-yl)benzothiazole-6-sulfonamide]
8.29	COc1ccc(S(=O)(=O)Nc2noc3cc(Cn4cccn4)nc(OC)c23)c2c1CCO2 [Example 72, N-(6-((1H-Pyrazol-1-yl)methyl)-4-methoxyisoxazolo[4,5-c]pyridin-3-yl)-4-methoxy-2,3-dihydrobenzofuran-7-sulfonamide]
8.70	COc1ccc2cc(C)oc2c1S(=O)(=O)Nc1noc2cc(Cn3cccn3)nc(OC)c12 [Example 65, N-(6-((1H-Pyrazol-1-yl)methyl)-4-methoxyisoxazolo[4,5-c]pyridin-3-yl)-6-methoxy-2-methylbenzofuran-7-sulfonamide]
8.14	COc1nc(Cn2cccn2)cc2onc(NS(=O)(=O)c3ccc(C#CC4CC4)c4ccoc34)c12 [Example 90, N-(6-((1H-Pyrazol-1-yl)methyl)-4-methoxyisoxazolo[4,5-c]pyridin-3-yl)-4-(cyclopropylethynyl)benzofuran-7-sulfonamide]
8.91	COc1ccc2c(c1S(=O)(=O)Nc1noc3cc(Cn4cccn4)nc(OC)c13)OC(C)C2 (stereo not drawn) [Example 66, N-(6-((1H-Pyrazol-1-yl)methyl)-4-methoxyisoxazolo[4,5-c]pyridin-3-yl)-6-methoxy-2-methyl-2,3-dihvdrobenzofuran-7-sulfonamide]
8.10	COc1ccc2occ(S(=O)(=O)Nc3noc4cc(Cn5cccn5)nc(OC)c34)c2c1 [Example 78, N-(6-((1H-Pyrazol-1-yl)methyl)-4-methoxyisoxazolo[4,5-c]pyridin-3-yl)-5-methoxybenzofuran-3-sulfonamide]
9.08	[2H]c1cc2ccc(OC)c(S(=O)(=O)Nc3noc4cc(Cn5cccn5)nc(OC)c34)c2o1 [Example 102, N-(6-((1H-pyrazol-1-yl)methyl)-4-methoxyisoxazolo[4,5-c]pyridin-3-yl)-6-methoxybenzofuran-7-sulfonamide-2-d]
7.74	COc1nc(Cn2cccn2)cc2onc(NS(=O)(=O)c3cccc4c3OC(F)(F)O4)c12 [Example 51, N-(6-((1H-Pyrazol-1-yl)methyl)-4-methoxyisoxazolo[4,5-c]pyridin-3-yl)-2,2-difluorobenzodioxole-4-sulfonamide]
7.79	COc1ccc2ccn(C)c2c1S(=O)(=O)Nc1noc2cc(Cn3cccn3)nc(OC)c12 [Example 56, N-(6-((1H-Pyrazol-1-yl)methyl)-4-methoxyisoxazolo[4,5-c]pyridin-3-yl)-6-methoxy-1-methyl-1H-indole-7-sulfonamide]
7.78	COc1nc(Cn2cccn2)cc2onc(NS(=O)(=O)c3ccc4c(c3)OC(F)(F)O4)c12 [Example 89, N-(6-((1H-Pyrazol-1-yl)methyl)-4-methoxyisoxazolo[4,5-c]pyridin-3-yl)-2,2-difluoro-1,3-benzodioxole-5-sulfonamide]
8.72	COc1ccc2c(c1S(=O)(=O)Nc1noc3cc(Cn4cccn4)nc(OC)c13)CCC2 [Example 77, N-(6-((1H-Pyrazol-1-yl)methyl)-4-methoxyisoxazolo[4,5-c]pyridin-3-yl)-5-methoxy-2,3-dihydro-1H-indene-4-sulfonamide]
8.57	COc1c(S(=O)(=O)Nc2noc3cc(Cn4cccn4)nc(OC)c23)ccc2c1OCO2 [Example 87, N-(6-((1H-Pyrazol-1-yl)methyl)-4-methoxyisoxazolo[4,5-c]pyridin-3-yl)-4-methoxy-1,3-benzodioxole-5-sulfonamide]
8.78	COc1nc(Cn2cccn2)cc2onc(NS(=O)(=O)c3cccc4cccnc34)c12 [Example 46]
7.64	COc1nc(Cn2cccn2)cc2onc(NS(=O)(=O)c3cccc4nc(C)oc34)c12 [Example 48, N-(6-((1H-Pyrazol-1-yl)methyl)-4-methoxyisoxazolo[4,5-c]pyridin-3-yl)-2-methylbenzo[d]oxazole-7-sulfonamide]

From patent EP4692094A1 (Beijing Konruns Pharmaceutical Co., Ltd., priority 2023, dated 2024)
